System: human skin
Assay: Clinical study with a cream for skincare against skin aging
Format: in vivo, humans
Conditions: comparison of skin creams in the clinical study
Method: A cream base was used having the following ingredients:
The huSOD-peptide OA 05 conjugate was produced as described in example 4.
The following compositions of skin cream were prepared for use in the clinical study:
The properties were evaluated according the following criteria: “firmness of the skin”, “reduction of superficial wrinkles”, “reduction of deeper wrinkles”, “skin regeneration”, and “appearance of young skin”. The questionnaire was filled out at least 4 weeks after starting of using the skin cream.
The application of the skin cream was done in all Groups (I to V) over 6 weeks twice a day, creaming the face and the neck in the morning and in the evening without using any other skin products. No application was discontinued in any group. The observation period (counted from the first application) was minimum 4 weeks and maximum 10 weeks.
Furthermore, a total evaluation of the different applied skin creams on a score ranging from 1 (excellent) to 6 (very poor) was performed.

Substance: KKKQKRKK (Cargo Peptide) [OA 05]
- beneficial effect on aging parameters in the human skin: significantly increases the beneficial effect of SOD

Substance: SOD: Super-Oxid- Dismutase (SOD), a free radical catcher; huSOD from Jena Biosciences
- beneficial effect on aging parameters in the human skin: has a beneficial effect on different aging parameters in the human skin
